Test results published in ChEMBL document CHEMBL3102818, “Tocopheramine succinate and tocopheryl succinate: mechanism of mitochondrial inhibition and superoxide radical production” (Bioorg Med Chem, 2014).
Calls of active or inactive are those of the source. The calls are words filed in the database; no cut-off is given here.

Legend:
Bos taurus [1] = species on record: Bos taurus; assay: Induction of superoxide radical generation in bovine succinate-respiring submitochondrial particles assessed as oxidation of CPH after 2 mins by ESR spectroscopy relative to control; format: functional
Bos taurus [2] = species on record: Bos taurus; assay: (§1) Inhibition of bovine mitochondrial electron transport protein complex 3 dUQH2:cytochrome c oxidoreductase activity by spectrophotometry
Bos taurus [3] = species on record: Bos taurus; assay: Induction of superoxide radical generation in bovine NADH-respiring submitochondrial particles assessed as oxidation of CPH after 2 mins by ESR spectroscopy relative to control; format: functional
[4] = Inhibition of bovine mitochondrial electron transport protein complex 2 succinate:DCPIP oxidoreductase activity by spectrophotometry; parameters: species or system Bos taurus
N18TG2 [5] = assay: Induction of superoxide radical generation in mouse N18TG2 cells assessed as CMH oxidation at 200 uM after 2 hrs by ESR spectroscopy relative to control; format: functional, cell-based
[6] = Drug degradation in mouse N18TG2 cells assessed as alpha-TOH formation at 10 nmol after 24 hrs by HPLC analysis; format: ADME, cell-based; settings: n18tg2, 24 h
Bos taurus [7] = species on record: Bos taurus; assay: Induction of superoxide radical generation in bovine NADH-respiring submitochondrial particles assessed as oxidation of CPH at 900 uM after 2 mins by ESR spectroscopy in presence of superoxide dismutase relative to control; format: functional
N18TG2 [8] = assay: Cytotoxicity against mouse N18TG2 cells at 6.25 to 100 uM by MTT assay; format: functional, cell-based
Bos taurus [9] = species on record: Bos taurus; assay: Induction of superoxide radical generation in bovine succinate-respiring submitochondrial particles assessed as oxidation of CPH at 900 uM after 2 mins by ESR spectroscopy in presence of superoxide dismutase relative to control; format: functional
Liver [10] = assay: Drug degradation in denaturated rat liver homogenates assessed as compound recovery at 500 nmol after 4 hrs by HPLC analysis; format: ADME, tissue-based; settings: tissue homogenate
Bos taurus [11] = species on record: Bos taurus; assay: Inhibition of bovine mitochondrial electron transport protein complex 1 NADH:dUQ oxidoreductase activity by spectrophotometry
[12] = as §1; parameters: species or system Bos taurus
HeLa = assay: Cytotoxicity against human HeLa cells at 100 to 200 uM by MTT assay; format: functional, cell-based
Liver [13] = assay: Drug degradation in rat liver homogenates at 500 nmol after 4 hrs by HPLC analysis; format: ADME, tissue-based; settings: tissue homogenate
Liver [14] = assay: Drug degradation in rat liver homogenates assessed as alpha-TOH formation at 500 nmol after 4 hrs by HPLC analysis; format: ADME, tissue-based; settings: tissue homogenate
Bos taurus [15] = species on record: Bos taurus; assay: Inhibition of oxygen consumption in bovine NADH-respiring submitochondrial particles involving complexes 1,3,4 after 3 mins relative to control; format: functional
Bos taurus [16] = species on record: Bos taurus; assay: Inhibition of oxygen consumption in bovine succinate-respiring submitochondrial particles involving complexes 2,3,4 after 3 mins relative to control; format: functional
Bos taurus [17] = species on record: Bos taurus; assay: Induction of superoxide radical generation in bovine succinate-respiring submitochondrial particles assessed as oxidation of CPH at 50 uM after 2 mins by ESR spectroscopy; format: functional
Bos taurus [18] = species on record: Bos taurus; assay: Induction of superoxide radical generation in bovine NADH-respiring submitochondrial particles assessed as oxidation of CPH at 900 uM after 2 mins by ESR spectroscopy; format: functional
Bos taurus [19] = species on record: Bos taurus; assay: Induction of superoxide radical generation in bovine succinate-respiring submitochondrial particles assessed as oxidation of CPH at 900 uM after 2 mins by ESR spectroscopy; format: functional
Bos taurus [20] = species on record: Bos taurus; assay: Induction of superoxide radical generation in bovine succinate-respiring submitochondrial particles assessed as oxidation of CPH at 900 uM after 2 mins by ESR spectroscopy in presence of rotenone; format: functional
[21] = Induction of superoxide radical generation in mouse N18TG2 cells assessed as CMH oxidation at 50 uM after 2 hrs by ESR spectroscopy (reference value: 0.40 +/- 0.05 pmol/min); format: functional
Bos taurus [22] = species on record: Bos taurus; assay: Induction of superoxide radical generation in bovine succinate-respiring submitochondrial particles assessed as oxidation of CPH at 36 uM after 2 mins by ESR spectroscopy in presence of rotenone; format: functional
Bos taurus [23] = species on record: Bos taurus; assay: Induction of superoxide radical generation in bovine NADH-respiring submitochondrial particles assessed as oxidation of CPH at 36 uM after 2 mins by ESR spectroscopy; format: functional
Bos taurus [24] = species on record: Bos taurus; assay: Induction of superoxide radical generation in bovine succinate-respiring submitochondrial particles assessed as oxidation of CPH at 36 uM after 2 mins by ESR spectroscopy; format: functional

| Structure (SMILES) | Activity (Bos taurus [1]) | Activity (Bos taurus [3]) | IC50 [4] [µM] | Activity (N18TG2 [5]) | Activity (Bos taurus [7]) | Activity (N18TG2 [8]) | Activity (Bos taurus [9]) | Stability (Liver [10]) | inhibition (Bos taurus [11]) | IC50 [12] [µM] | Activity (HeLa) | Stability (Liver [13]) | Stability [6] | Stability (Liver [14]) | inhibition (Bos taurus [15]) | inhibition (Bos taurus [16]) | also measured |
| --- | --- | --- | --- | --- | --- | --- | --- | --- | --- | --- | --- | --- | --- | --- | --- | --- | --- |
| CC(=O)Oc1c(C)c(C)c2c(c1C)CC[C@@](C)(CCC[C@H](C)CCC[C@H](C)CCCC(C)C)O2 | inactive | inactive | > 1000 | inactive | – | – | – | – | – | – | – | – | – | – | – | – | inhibition (Bos taurus [2]): Active; Drug degradation [6]: 100% |
| Cc1c(C)c2c(c(C)c1NC(=O)CCC(=O)O)CC[C@@](C)(CCC[C@H](C)CCC[C@H](C)CCCC(C)C)O2 | inactive | inactive | 106 | inactive | inactive | Active | inactive | Stable | inactive | 137 | inactive | Unstable | Stable | Stable | Dose-dependent effect | Dose-dependent effect | – |
| C=C(C)[C@H]1Cc2c(ccc3c2O[C@@H]2COc4cc(OC)c(OC)cc4[C@@H]2C3=O)O1 | – | – | – | – | – | – | – | – | – | – | – | – | – | – | – | – | Activity (Bos taurus [17]): Active |
| Cc1c(C)c2c(c(C)c1OC(=O)CCC(=O)O)CC[C@@](C)(CCC[C@H](C)CCC[C@H](C)CCCC(C)C)O2 [(+)-ALPHA-TOCOPHERYL SUCCINATE] | Active | Active | 42 | Active | inactive | Active | inactive | Stable | inactive | 315 | inactive | Unstable | Unstable | Unstable | Dose-dependent effect | Dose-dependent effect | Activity (Bos taurus [18]): Active; Activity (Bos taurus [19]): Active; Activity (Bos taurus [20]): Active |
| CCCCCC[C@H]1C(=O)O[C@H](C)[C@H](NC(=O)c2cccc(NC=O)c2O)C(=O)O[C@@H](C)[C@@H]1OC(=O)CC(C)C [ANTIMYCIN A] | – | – | – | – | – | – | – | – | – | – | – | – | – | – | – | – | Activity [21]: 1.2 pmol/min; Activity (Bos taurus [22]): Active; Activity (Bos taurus [23]): Active; Activity (Bos taurus [24]): Active |
